According to ChEMBL document CHEMBL1201862, “PubChem BioAssay data set” (2004):
Activity calls are given as the source filed them.

Key:
[1] = biological target: Glyceraldehyde-3-phosphate dehydrogenase (Homo sapiens, UniProt P04406)
[2] = HEK-293T cell viability reduction – luminescence, B-cell screen hits, cytotoxicity control for BCR NF-kB inhibitor project, dose response (AID 489021); assay type: functional, cell-based;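 also: HEK-293T cells carrying an NF-kB luciferase reporter; cells exposed to compound for about 14 hours before viability readout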
[3] = off-target signal loss in HeLa-CEM21 co-culture – HeLa F-luc CTL cells, cherry-picked, counter-screen for HIV-1 Env fusion inhibitor project, dose response (AID 652040); assay type: functional, cell-based;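 also: potency for signal decrease marking cytotoxic or nonspecific inhibition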
[4] = blockers of HIV-1 envelope-mediated cell-cell fusion – cherry-pick, dose response (AID 652057); assay type: functional, cell-based
[5] = HIV-1 AD8 envelope cell-cell fusion blockers – cherry-pick, dose response (AID 652062); assay type: functional, cell-based;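 also: luciferase signal from cell-cell fusion driven by HIV-1 clade B AD8 Env; potency is for inhibitors of fusion seen as a drop in luminescence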
[6] = blockers of HIV-1 ZM109 envelope-driven cell-cell fusion – HeLa effector, CEM target cells, luciferase, cherry-pick, dose response (AID 652058); assay type: functional, cell-based;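 also: luciferase signal from HIV-1 Env mediated cell-cell fusion of effector and target cells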
[7] = biological target: T1, Calpain-2 catalytic subunit (Sus scrofa, UniProt P43367); assay: m-calpain protease blockers, concentration series – biochemical, fluorogenic peptide substrate, dose response (AID 1420); assay type: functional
T1 sequence (P43367 whole entry): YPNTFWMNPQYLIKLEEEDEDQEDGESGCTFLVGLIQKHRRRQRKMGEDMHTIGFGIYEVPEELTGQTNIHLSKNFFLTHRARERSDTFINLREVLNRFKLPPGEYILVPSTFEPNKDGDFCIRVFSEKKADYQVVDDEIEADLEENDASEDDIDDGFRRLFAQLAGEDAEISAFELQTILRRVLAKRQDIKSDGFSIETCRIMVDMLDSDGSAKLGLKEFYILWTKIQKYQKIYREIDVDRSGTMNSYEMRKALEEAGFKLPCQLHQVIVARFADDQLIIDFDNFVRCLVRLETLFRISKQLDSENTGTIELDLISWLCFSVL

[8] = biological target: T2, High affinity choline transporter 1 (Homo sapiens, UniProt Q9GZV3); assay: human choline transporter blockers, potency – cell-based, 5-point CRC, membrane potential dye, dose response (AID 504840); assay type: functional
T2 sequence (Q9GZV3 whole entry): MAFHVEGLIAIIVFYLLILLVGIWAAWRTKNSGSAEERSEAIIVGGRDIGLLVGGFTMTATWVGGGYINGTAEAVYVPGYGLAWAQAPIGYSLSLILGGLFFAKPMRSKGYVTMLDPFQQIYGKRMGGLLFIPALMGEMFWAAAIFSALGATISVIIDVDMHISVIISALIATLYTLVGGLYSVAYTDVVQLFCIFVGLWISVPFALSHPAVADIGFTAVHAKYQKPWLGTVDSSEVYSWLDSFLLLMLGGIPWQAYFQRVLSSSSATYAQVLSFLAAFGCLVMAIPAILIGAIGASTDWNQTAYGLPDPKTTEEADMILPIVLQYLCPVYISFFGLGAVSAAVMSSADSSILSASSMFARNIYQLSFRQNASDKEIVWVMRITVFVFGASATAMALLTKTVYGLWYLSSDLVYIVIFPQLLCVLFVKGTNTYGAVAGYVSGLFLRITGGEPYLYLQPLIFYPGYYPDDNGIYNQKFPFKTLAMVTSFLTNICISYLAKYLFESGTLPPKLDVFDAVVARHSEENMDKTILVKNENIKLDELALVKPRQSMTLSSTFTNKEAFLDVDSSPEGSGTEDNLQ

BJ [9] = assay: BJ-TERT-LT-ST fibroblast viability loss – cell-based, RAS-independent, luminescence, dose response (AID 1935); assay type: functional; settings: Homo sapiens;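 also: BJ fibroblasts immortalized with TERT plus LT and ST oncogenes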
BJ [10] = assay: cells; assay type: functional, cell-based; settings: Homo sapiens
BJ [11] = assay: BJ-TERT fibroblast viability loss – cell-based, RAS-independent, luminescence, dose response (AID 1933); assay type: functional; settings: Homo sapiens
[12] = DRD fibroblast viability loss – cell-based, non-viral oncogenic, luminescence, dose response (AID 1934); assay type: functional; settings: Homo sapiens
[13] = biological target: T3, Heat shock factor protein 1 (Mus musculus, UniProt P38532); assay: enhancement of HSF1-driven luciferase signal – cell-based, NIH3T3, luminescence, dose retest, confirmation (AID 435004); assay type: functional;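 also: stress induced by proteasome inhibitor MG132 added 30 min after compound; luciferase reporter driven by HSF1 response element in NIH3T3 cells; actives raise luminescence as potentiators of the MG132 stress response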
T3 sequence (P38532 whole entry): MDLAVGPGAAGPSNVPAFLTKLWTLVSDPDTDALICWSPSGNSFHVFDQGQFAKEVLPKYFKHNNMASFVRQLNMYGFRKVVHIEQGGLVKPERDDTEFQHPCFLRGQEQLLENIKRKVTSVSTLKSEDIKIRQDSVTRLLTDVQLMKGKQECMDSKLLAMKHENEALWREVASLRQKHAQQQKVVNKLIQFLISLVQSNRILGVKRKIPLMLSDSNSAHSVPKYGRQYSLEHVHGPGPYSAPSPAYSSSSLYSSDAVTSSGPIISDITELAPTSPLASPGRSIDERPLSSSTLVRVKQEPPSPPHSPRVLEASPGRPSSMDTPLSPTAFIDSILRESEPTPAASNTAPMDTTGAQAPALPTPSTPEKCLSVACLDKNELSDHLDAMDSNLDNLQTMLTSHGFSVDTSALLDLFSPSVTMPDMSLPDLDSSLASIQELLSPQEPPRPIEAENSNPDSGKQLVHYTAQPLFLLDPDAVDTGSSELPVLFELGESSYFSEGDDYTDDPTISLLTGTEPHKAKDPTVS

[14] = biological target: T4, Corticotropin-releasing factor receptor 2/Corticotropin-releasing factor-binding protein (Homo sapiens, UniProt P24387+Q13324); assay: activators of CRF receptor 2 with binding protein – uHTS hits, confirmation (AID 602473); assay type: functional; settings: read-out: EC50_Mean
T4 sequence (Q13324 whole entry): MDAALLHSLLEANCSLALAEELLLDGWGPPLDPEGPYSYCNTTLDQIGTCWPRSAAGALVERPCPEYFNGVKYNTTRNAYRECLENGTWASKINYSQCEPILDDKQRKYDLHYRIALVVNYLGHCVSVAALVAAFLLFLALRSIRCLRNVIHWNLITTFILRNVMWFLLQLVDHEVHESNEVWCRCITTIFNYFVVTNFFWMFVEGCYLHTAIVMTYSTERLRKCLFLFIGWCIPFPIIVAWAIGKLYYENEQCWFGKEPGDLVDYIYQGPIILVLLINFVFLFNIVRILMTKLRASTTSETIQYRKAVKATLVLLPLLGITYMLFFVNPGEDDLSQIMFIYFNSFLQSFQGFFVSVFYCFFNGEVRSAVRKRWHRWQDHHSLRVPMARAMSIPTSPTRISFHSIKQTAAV
T4 sequence (P24387 whole entry): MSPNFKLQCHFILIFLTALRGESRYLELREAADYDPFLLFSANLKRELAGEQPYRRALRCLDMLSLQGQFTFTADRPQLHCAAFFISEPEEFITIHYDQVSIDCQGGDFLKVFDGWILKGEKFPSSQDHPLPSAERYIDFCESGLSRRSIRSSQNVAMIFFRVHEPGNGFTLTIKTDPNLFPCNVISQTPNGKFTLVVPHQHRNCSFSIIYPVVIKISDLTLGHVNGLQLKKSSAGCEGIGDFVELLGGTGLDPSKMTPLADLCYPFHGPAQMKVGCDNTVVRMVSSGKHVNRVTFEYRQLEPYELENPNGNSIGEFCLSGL

[15] = biological target: T5, Ubiquitin-conjugating enzyme E2 N (Homo sapiens, UniProt P61088); assay type: functional;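 also: Dose-response confirmation in a TR-FRET assay detecting UBC13-driven polyubiquitin chain formation, inhibition measured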
T5 sequence (P61088 whole entry): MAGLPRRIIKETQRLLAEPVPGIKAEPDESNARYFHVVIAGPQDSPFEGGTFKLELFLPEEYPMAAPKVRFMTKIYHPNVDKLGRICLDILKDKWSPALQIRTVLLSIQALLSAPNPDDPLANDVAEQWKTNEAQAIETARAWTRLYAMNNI

H9c2 = assay: cells; assay type: functional, cell-based; settings: Rattus norvegicus, H9c2, Myocardium
SN12K1 = assay: cells; assay type: functional; settings: Homo sapiens
P388/ADR = assay: cells; assay type: functional; settings: Mus musculus
P388 = assay: cells; assay type: functional; settings: Mus musculus
[16] = P. falciparum Dd2 growth inhibitors, dose response, SYBR Green, cherry-picked samples (AID 1159567); assay type: functional, cell-based
INS1 = assay: INS-1E survival protection against cytokine death – cell-based, luminescence, retest, dose response (AID 449756); assay type: functional; settings: Rattus norvegicus;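 also: cell death triggered by IL-1 beta plus TNF-alpha plus IFN-gamma mixture; protective hits raise ATP signal compared with cytokine alone wells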

Sequence of Glyceraldehyde-3-phosphate dehydrogenase (P04406 whole entry): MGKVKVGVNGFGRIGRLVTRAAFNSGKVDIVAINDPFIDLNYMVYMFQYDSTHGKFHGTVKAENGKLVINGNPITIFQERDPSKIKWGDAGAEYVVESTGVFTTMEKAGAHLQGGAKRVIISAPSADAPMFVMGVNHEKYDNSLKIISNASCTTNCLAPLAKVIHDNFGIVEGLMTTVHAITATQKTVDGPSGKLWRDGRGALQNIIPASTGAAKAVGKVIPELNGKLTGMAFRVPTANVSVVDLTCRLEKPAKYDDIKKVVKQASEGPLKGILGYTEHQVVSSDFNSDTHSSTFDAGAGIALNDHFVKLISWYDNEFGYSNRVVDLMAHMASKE

## Cc1cccc(N2C(=O)C(Cl)=C(N3CCN(c4ncccn4)CC3)C2=O)c1
[1]
  IC50: > 50 µM (inconclusive)

## O=C(CCCN1C(=O)/C(=C/c2ccccc2Cl)SC1=S)NNC(=O)c1ccncc1
[2]
  IC50: > 80 µM (inactive)

## Nc1c(Cl)cc2c(c1Oc1ccccc1)C(=O)c1ccccc1C2=O
[3]
  AC50: 11.2 µM (active)
[4]
  AC50: 11.2 µM (active)
[5]
  AC50: 16.4 µM (active)
[6]
  AC50: 14.3 µM (active)
[7]
  IC50: 2.46 µM (not active)

## Cc1nn(C(C)(C)C)c(OC(=O)c2ccc(Br)o2)c1Sc1ccccc1
[2]
  IC50: > 80 µM (inactive)

## CC(C)Nc1nc(Cl)nc(N(C#N)CN2C(=O)c3ccccc3C2=O)n1
[8]
  IC50: 1.58 µM (active)
BJ [9]
  EC50: > 150 µM (inconclusive)
BJ [10]
  EC50: 16.2 µM (active)
BJ [11]
  EC50: 10.1 µM (active)
[12]
  EC50: 17.9 µM (active)
[13]
  EC50: 27.9 µM (active)

## CS(=O)(=O)N(Cc1ccc(Cl)cc1)c1ccc(C(=O)NCCSc2ccccn2)cc1
[3]
  AC50: 18.6 µM (active)
[14]
  EC50: > 53 µM (inactive)
[4]
  AC50: 5.5 µM (active)
[5]
  AC50: 6.23 µM (active)
[6]
  AC50: 52.2 µM (active)

## C[C@@H]1CN(C2=C(Cl)C(=O)N(c3cccc(C(F)(F)F)c3)C2=O)CCN1
[1]
  IC50: > 50 µM (inconclusive)

## O=C(NCC1CCN(Cc2ccc(F)cc2)CC1)C1CCCN(c2ncnc3c2nc2n3CCCCC2)C1 (stereo unspecified)
[15]
  IC50: > 20 µM (inactive)

## COc1ccc(NC(=O)c2cc(-c3ccccn3)nc3ccccc23)cc1S(=O)(=O)N(C)C
H9c2
  IC50: > 79 µM (inactive)
[2]
  IC50: > 80 µM (inactive)

## C[C@@]12C(=O)N(Cc3ccc(F)cc3)CC(=O)N1[C@H]1c3cc(Cl)ccc3OC[C@@H]1[C@@H]2c1ccccc1
[3]
  AC50: 7.95 µM (active)
[4]
  AC50: 5.93 µM (active)
[6]
  AC50: 8.91 µM (active)

## COCCn1nnnc1CN(CCc1ccccc1)Cc1cc2cc(OC)ccc2nc1O
[3]
  AC50: 26.9 µM (active)
H9c2
  IC50: 16.1 µM (active)
[4]
  AC50: 5.69 µM (active)
[5]
  AC50: 1.48 µM (active)
[6]
  AC50: 5.58 µM (active)

## CN(C)CCNC(=O)c1cccc2nc(-c3ccccc3)oc12
SN12K1
  GI50: 22.8 µM (inactive)
P388/ADR
  GI50: 8.63 µM (inactive)
P388
  GI50: 4.34 µM (inactive)

## COc1ccc(/C=N\NC(=O)c2c(C)nc3ccc(Br)cn23)cc1
BJ [9]
  EC50: 2.67 µM (inconclusive)
H9c2
  IC50: 12.1 µM (active)
BJ [10]
  EC50: 2.71 µM (active)
BJ [11]
  EC50: 3.13 µM (active)
[12]
  EC50: 2.9 µM (inconclusive)

## Cc1ccc(C(=O)Nc2ncn(C3CC(O)C(CO)O3)c(=O)n2)cc1 (stereo unspecified)
SN12K1
  GI50: > 100 µM (inactive)
P388/ADR
  GI50: 3.69 µM (inactive)
P388
  GI50: 5.26 µM (inactive)

## CC1(C)CC2(CC(C)(C)N1O)NC(=O)OC2=O
SN12K1
  GI50: > 100 µM (inactive)
P388/ADR
  GI50: 4.47 µM (inactive)
P388
  GI50: 60.7 µM (inactive)

## CC[C@@]1(O)C[C@H](OC2CC(N(C)C)C(OC3CC(O)C(OC4CC(O)C(O)C(C)O4)C(C)O3)C(C)O2)c2c(cc3c(c2O)C(=O)c2c(O)ccc(O)c2C3=O)[C@H]1C(=O)OC (stereo partly specified)
SN12K1
  GI50: 0.00695 µM (active)
P388/ADR
  GI50: 0.713 µM (active)
P388
  GI50: 0.00693 µM (active)

## CC(=O)OC1CC2(O)C(CCC3(C)C(c4ccc(=O)oc4)CCC32O)C2(C)CCC(O)C=C12 (stereo unspecified)
SN12K1
  GI50: 0.0196 µM (active)
P388/ADR
  GI50: 7.26 µM (inactive)
P388
  GI50: 4.37 µM (inactive)

## COc1ccccc1/C=N/N1C(=O)C(CC(=O)Nc2ccc([N+](=O)[O-])cc2OC)S/C1=N\c1cccc(C)c1C (stereo unspecified)
BJ [9]
  EC50: 14.9 µM (inconclusive)
BJ [10]
  EC50: 22.9 µM (active)
BJ [11]
  EC50: 10.6 µM (active)
[12]
  EC50: 4.24 µM (active)

## CC(C)(O)C#Cc1cccc(-c2nc(C(=O)N[C@@H]3CCN(Cc4ccccc4)C3)cc3c2[C@H](CCO)N([S+]([O-])C(C)(C)C)C3)c1 (stereo partly specified)
[16]
  AC50: 5.86 µM (active)

## N=c1c2c(n(Cc3ccc(Cl)cc3Cl)c3c1CCC3)CCCC2
INS1
  AC50: 3.58 µM (active)
[2]
  IC50: > 80 µM (inactive)

## CN(CO)c1nc(N(C)CO)nc(N(C)CO)n1 [TRIMELAMOL]
SN12K1
  GI50: 4.98 µM (inactive)
P388/ADR
  GI50: 16.3 µM (inactive)
P388
  GI50: 6.15 µM (inactive)
